# How the values were obtained:
# [1] = test system: calcein loaded phospholipid vesicles (PC, PG, PE-PG mix, E. coli total, E. coli polar); assay: Synthetic phospholipid vesicle lysis (calcein leakage) assay; details: SSA titration; concentrations ≤0.5 mM; after 15 min; in words
# MRSA USA300 = details: n = 3, 0.5 McFarland standard, after 900 min, number in bracket = efficacy rank; cited from earlier work
# [2] = Critical micelle concentration from surface tension measurements (pendant drop); assay type: physicochemical; details: 19 : 1 H2O : EtOH solution at 298 K
# Description: Section 2: General Methods
# General remarks: A positive pressure of nitrogen and oven dried glassware were used for all reactions.
# All solvents and starting materials were purchased from known chemical suppliers or available stores and used without any further purification unless specifically stipulated. The NMR spectra were obtained using a Burker AV2 400 MHz, AVNEO 400 MHz or Avance III […] spectrometer. The data was processed using ACD Labs or MestreNova software. NMR Chemical shift values are reported in parts per million (ppm) and calibrated to the centre of the residual solvent peak set (s = singlet, br = broad, d = doublet, t = triplet, q = quartet, m = multiplet). Fluorescence and fluorescence polarisation measurements were conducted using a Clariostar plate reader and analysed using MARS data analysis […]
# Tensiometry Studies: All the samples were prepared in an EtOH:H2O (1:19) solution. All samples underwent an annealing process in which the various solutions were heated to approximately 40 °C before being allowed to cool to room temperature, allowing each sample to reach a thermodynamic minimum. All samples were prepared through serial dilution of the most concentrated sample. Three surface tension measurements were obtained for each sample at a given concentration, using the […]
# pendant drop method. […]
# Data
# [3] = test system: calcein loaded phospholipid vesicles (PC, PG, PE-PG mix, E. coli total, E. coli polar); assay: Synthetic phospholipid vesicle lysis (calcein leakage) assay; details: SSA 1.5 mM, in words; for time dependence of vesicle lysis: 15 min vs 30 s, E. coli-based vesicles
# Description: Here, samples of phospholipid vesicles containing the fluorescent dye calcein were prepared. At internal vesicle concentrations, this dye undergoes self-quenching. […] The increase in fluorescence output is proportional to the % of vesicle lysis observed upon the addition of SSAs 1–14, when calibrated against a solution of vesicles know to have undergone 100% lysis, see Fig. 5.
# Fig. 5 The average (n = 3) percentage lysis (%) of vesicles (30 μM) composed of five different lipid compositions (Table 2), with an internal calcein concentration of 70 mM at 298 K. The % vesicle lysis was calculated through observation of increasing fluorescence emission (λem = 515 nm), following the addition of SSAs […] (1.5 mM) in a H2O/EtOH 95 : 5 solution after: (a) 30 s and; (b) 15 min. Triton X-100 (1%) was used as a positive control for 100% vesicle lysis. Data normalised to the addition of a H2O/EtOH 95 : 5 solution. Red = PC, yellow = PG, green = PE-PG mix, blue = E. coli total, pink = E. coli polar. Error = standard error.
# Section 2: General Methods […]
# Preparation of vesicles: All lipids were purchased as powder stocks from Avanti Polar Lipids. Lipid vesicles were prepared according to standard procedures.1 Each phospholipid was dissolved in chloroform (~ 10 mL) and the solvent was removed under reduced pressure. The thin film of dried lipid was further dried in vacuo for at least 2 hours. Lipid films were resuspended in the desired buffer and subjected to 9 freeze-thaw cycles in liquid nitrogen and extruded 20 times through a 200 nm […]
# Preparation of calcein loaded vesicles: Lipid films were resuspended in buffer A (70 mM calcein, 10 mM TRIS pH 8.5, 0.5 mM EDTA, 110 mM NaCl, pH adjusted to 6-7) and subjected to 9 freeze-thaw cycles in liquid nitrogen and extruded 20 times through a 200 nm polycarbonate membrane. The suspension was run down a size exclusion column packed with sephadex G-50 using buffer B (10 mM TRIS pH 8.5, 0.5 mM EDTA, 110 mM NaCl). The hydrodynamic dimeter of the lipids was monitored using an Anton Paar LitesizerTM 500 to ensure the separation of free and entrapped calcein.
# Phospholipid concentration was adjusted to 30 µM for vesicle leakage experiments.
# Vesicle leakage assay: Black bottom 96-well plates were prepared with the appropriate lipid solution (100 µL, 30 µM) and desired SSA solution (100 µL) prepared in H2O/EtOH 95: 5. A solution of 1 % Triton X-100 (16) was used for a 100 % lysis control and a H2O/EtOH 95: 5 solution was used as a 0 % lysis control. Fluorescent measurements were taken at 25 °C using an excitation value of 495 nm and an optimised gain of 983. Data were acquired in endpoint mode. All experiments were repeated in triplicate to ensure experimental reproducibility. […]
# Data
Structure (SMILES),vesicle lysis PG over PC [1],MIC50 MRSA (MRSA USA300),time dependence of vesicle lysis [3],other results
O=C(NCS(=O)(=O)O)Nc1ccccc1-c1nc2ccccc2s1 [SSA 5],enhanced levels of vesicle lysis against PG,0.99(5) mM,,
O=C(NCS(=O)(=O)O)Nc1ccc(C(F)(F)F)cc1 [SSA 3],,0.35(1) mM,,
Cc1ccc2nc(-c3ccc(NC(=O)NCC(=O)O)cc3)sc2c1 [SSA 11],,,,"CMC ([2]; unit printed in Figs S37-S40, not in Table 3, listed as 11): 3.0 mM; CMC ([2]; unit printed in Figs S37-S40, not in Table 3, listed as compound 11): 3.03 mM; vesicle lysis activity ([3]; thirty seconds after SSA addition, five vesicle types): general surfactant type properties, similar to that of Triton"
Cc1ccc2nc(-c3ccc(NC(=S)NCS(=O)(=O)O)cc3)sc2c1 [SSA 12],,,,"CMC ([2]; unit given in Figs S37-S40, not in Table 3): 4.6 mM"
O=C(NCS(=O)(=O)O)Nc1ccc(C(F)(F)F)cc1 [SSA 1],,0.46(2) mM,,
O=C(NCS(=O)(=O)O)Nc1ccc(-c2nc3ccccc3s2)cc1 [SSA 8],enhanced levels of vesicle lysis against PG,,time dependent enhancement of vesicle lysis,"CMC ([2]; unit printed in Figs S37-S40, not in Table 3, listed as 8): 5.2 mM; CMC ([2]; unit printed in Figs S37-S40, not in Table 3, listed as compound 8): 5.16 mM"
Cc1ccc2nc(-c3ccc(NC(=O)NCS(=O)(=O)O)cc3)sc2c1 [SSA 6],enhanced levels of vesicle lysis against PG,0.93(4) mM,time dependent enhancement of vesicle lysis,
Cc1ccc2nc(-c3ccc(NC(=O)NCCCS(=O)(=O)O)cc3)sc2c1 [SSA 10],,,time dependent enhancement of vesicle lysis,"CMC ([2]; unit printed in Figs S37-S40, not in Table 3, listed as 10): 14.8 mM; CMC ([2]; unit printed in Figs S37-S40, not in Table 3, listed as compound 10): 14.77 mM"
Cc1ccc2nc(-c3ccc(NC(=O)NCCC(=O)O)cc3)sc2c1 [SSA 9],,,time dependent enhancement of vesicle lysis,"CMC ([2]; unit printed in Figs S37-S40, not in Table 3, listed as 9): 1.9 mM; CMC ([2]; unit printed in Figs S37-S40, not in Table 3, listed as compound 9): 1.92 mM"
O=C(O)CNC(=O)Nc1ccc(C(F)(F)F)cc1 [SSA 4],,1.14(6) mM,,

# Source: PMC9400670, “Establishing the selective phospholipid membrane coordination, permeation and lysis properties for a series of ‘druggable’ supramolecular self-associating antimicrobial amphiphiles” (Chemical Science, 2022)
